The target of one assay is EGFR del19/T790M/C797S (Homo sapiens, UniProt P00533, C797S/DEL746-750/T790M). The assay is described as follows: Biochemical EGFR kinase assay (Lance Ultra TR-FRET), triple mutant del19/T790M/C797S. An outline of the steps: (§1)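 Enzyme reactions lasted 1 hour at room temperature with test compounds between 0.003 and 10 μM, followed by 10 mM EDTA quench.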
The target in a further assay is EGFR L858R/T790M/C797S (Homo sapiens, UniProt P00533, C797S/L858R/T790M). The assay is described as follows: Biochemical EGFR kinase assay (Lance Ultra TR-FRET), triple mutant L858R/T790M/C797S. An outline of the steps:
as §1
In general terms: TR-FRET usually uses a lanthanide donor and a delayed reading to cut background.

The target of the next assay is EGFR del19/C797S (Homo sapiens, UniProt P00533, C797S/DEL746-750). Nature of the assay: Biochemical EGFR kinase assay (Lance Ultra TR-FRET), double mutant del19/C797S. An outline of the steps: as §1
A further assay concerns the target EGFR L858R/C797S (Homo sapiens, UniProt P00533, C797S/L858R). Nature of the assay: Biochemical EGFR kinase assay (Lance Ultra TR-FRET), double mutant L858R/C797S. The method in brief: as §1
A further assay concerns the target EGFR wildtype (WT) (Homo sapiens, UniProt P00533). The assay is described as follows: Biochemical EGFR kinase assay (Lance Ultra TR-FRET), wildtype. An outline of the steps:
as §1

Where [1] appears, read: IC50 del19/T790M/C797S (nM) 100 μM ATP, 100 μM ATP.
The mark [2] stands for this setting: Km ATP, read-out: IC50 del19/T790M/C797S (nM) Km ATP.
Where [3] appears, read: IC50 L858R/T790M/C797S (nM) 100 μM ATP, 100 μM ATP.
[4] abbreviates: Km ATP, read-out: IC50 L858R/T790M/C797S (nM) Km ATP.
[5] abbreviates: IC50 del19/C797S (nM) 100 μM ATP, 100 μM ATP.
Setting [6] is: Km ATP, read-out: IC50 del19/C797S (nM) Km ATP.
The mark [7] stands for this setting: IC50 L858R/C797S (nM) 100 μM ATP, 100 μM ATP.
Where [8] appears, read: Km ATP, read-out: IC50 L858R/C797S (nM) Km ATP.
[9] abbreviates: IC50 WT (nM) 100 μM ATP, 100 μM ATP.
The mark [10] stands for this setting: Km ATP, read-out: IC50 WT (nM) Km ATP.
[11] abbreviates: Km ATP, read-out: IC50 del19/T790M/C797S, Km ATP.
The mark [12] stands for this setting: Km ATP, read-out: IC50 L858R/T790M/C797S, Km ATP.
Where [13] appears, read: Km ATP, read-out: IC50 del19/C797S, Km ATP.
Setting [14] is: Km ATP, read-out: IC50 L858R/C797S, Km ATP.
Where [15] appears, read: Km ATP, read-out: IC50 WT, Km ATP.

Where two headings read alike, the source gives them in different places.

This note sets out measurements from US12258327B2, “5-membered heteroaryl-containing aminopyridine compounds as EGFR inhibitors” (YUHAN CORPORATION, priority 2021, dated 2025).

Sequence of EGFR del19/T790M/C797S (P00533 with tags, fused parts or gaps DEL746-750/T790M/C797S): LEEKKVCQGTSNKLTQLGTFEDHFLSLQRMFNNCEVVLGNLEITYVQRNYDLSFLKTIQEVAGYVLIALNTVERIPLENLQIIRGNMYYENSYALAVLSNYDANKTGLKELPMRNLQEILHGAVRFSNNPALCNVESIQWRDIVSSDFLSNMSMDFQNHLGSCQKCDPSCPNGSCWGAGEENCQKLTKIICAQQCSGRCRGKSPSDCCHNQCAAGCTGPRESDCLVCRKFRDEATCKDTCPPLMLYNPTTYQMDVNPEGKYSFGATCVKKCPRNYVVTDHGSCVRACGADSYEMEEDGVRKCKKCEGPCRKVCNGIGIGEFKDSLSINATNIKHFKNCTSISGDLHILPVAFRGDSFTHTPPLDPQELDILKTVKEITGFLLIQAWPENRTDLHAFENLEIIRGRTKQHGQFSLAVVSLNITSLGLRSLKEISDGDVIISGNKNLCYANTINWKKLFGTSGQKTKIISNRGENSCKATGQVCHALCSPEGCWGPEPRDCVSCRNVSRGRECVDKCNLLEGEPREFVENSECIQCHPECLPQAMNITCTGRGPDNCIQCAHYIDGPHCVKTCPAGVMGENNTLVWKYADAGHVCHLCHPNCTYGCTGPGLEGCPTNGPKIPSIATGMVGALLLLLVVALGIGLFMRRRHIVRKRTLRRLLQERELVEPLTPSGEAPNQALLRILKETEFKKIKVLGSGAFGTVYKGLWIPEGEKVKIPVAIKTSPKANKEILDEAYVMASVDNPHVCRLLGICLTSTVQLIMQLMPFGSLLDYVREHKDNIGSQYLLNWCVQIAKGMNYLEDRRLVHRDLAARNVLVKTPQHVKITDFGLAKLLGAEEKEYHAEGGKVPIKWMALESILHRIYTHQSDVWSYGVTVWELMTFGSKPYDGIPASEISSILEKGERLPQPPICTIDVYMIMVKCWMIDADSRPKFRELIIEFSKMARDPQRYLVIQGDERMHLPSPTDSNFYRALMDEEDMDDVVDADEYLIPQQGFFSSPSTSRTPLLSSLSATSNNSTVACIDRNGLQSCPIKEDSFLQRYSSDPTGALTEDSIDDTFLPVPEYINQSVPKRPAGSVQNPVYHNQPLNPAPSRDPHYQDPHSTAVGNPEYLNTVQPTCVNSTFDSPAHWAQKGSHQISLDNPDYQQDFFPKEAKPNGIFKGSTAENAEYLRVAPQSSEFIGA
Sequence of EGFR L858R/T790M/C797S (P00533 25-1210 T790M/C797S/L858R): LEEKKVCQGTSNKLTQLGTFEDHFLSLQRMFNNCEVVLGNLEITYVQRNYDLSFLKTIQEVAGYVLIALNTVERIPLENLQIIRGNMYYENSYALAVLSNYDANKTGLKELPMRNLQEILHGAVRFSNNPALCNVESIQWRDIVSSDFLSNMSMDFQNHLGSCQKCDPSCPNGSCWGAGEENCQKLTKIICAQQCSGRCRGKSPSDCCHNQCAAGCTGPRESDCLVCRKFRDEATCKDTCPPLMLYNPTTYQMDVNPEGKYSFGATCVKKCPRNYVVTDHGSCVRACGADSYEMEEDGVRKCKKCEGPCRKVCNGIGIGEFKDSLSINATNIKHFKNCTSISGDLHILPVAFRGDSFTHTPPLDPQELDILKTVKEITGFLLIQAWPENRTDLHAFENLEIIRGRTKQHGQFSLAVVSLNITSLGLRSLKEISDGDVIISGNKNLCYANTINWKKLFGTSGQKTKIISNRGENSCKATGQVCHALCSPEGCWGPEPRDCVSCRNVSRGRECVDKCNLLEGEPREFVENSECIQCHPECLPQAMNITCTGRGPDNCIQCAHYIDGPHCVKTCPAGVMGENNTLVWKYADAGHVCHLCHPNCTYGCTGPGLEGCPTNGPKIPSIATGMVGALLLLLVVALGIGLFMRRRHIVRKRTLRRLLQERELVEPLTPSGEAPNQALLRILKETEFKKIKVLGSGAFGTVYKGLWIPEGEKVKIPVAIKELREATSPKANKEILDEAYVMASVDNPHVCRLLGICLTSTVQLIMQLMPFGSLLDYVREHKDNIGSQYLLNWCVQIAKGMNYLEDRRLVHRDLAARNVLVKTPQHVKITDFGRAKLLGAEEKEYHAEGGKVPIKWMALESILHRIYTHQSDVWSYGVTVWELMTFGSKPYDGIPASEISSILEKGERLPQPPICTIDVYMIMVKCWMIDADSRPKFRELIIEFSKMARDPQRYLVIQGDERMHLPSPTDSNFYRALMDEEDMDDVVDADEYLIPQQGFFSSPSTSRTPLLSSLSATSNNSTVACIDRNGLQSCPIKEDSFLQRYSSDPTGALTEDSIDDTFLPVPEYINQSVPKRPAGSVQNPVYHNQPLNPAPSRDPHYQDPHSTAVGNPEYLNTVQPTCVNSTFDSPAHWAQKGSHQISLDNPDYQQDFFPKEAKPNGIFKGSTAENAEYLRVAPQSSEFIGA
Sequence of EGFR wildtype (WT) (P00533 25-1210): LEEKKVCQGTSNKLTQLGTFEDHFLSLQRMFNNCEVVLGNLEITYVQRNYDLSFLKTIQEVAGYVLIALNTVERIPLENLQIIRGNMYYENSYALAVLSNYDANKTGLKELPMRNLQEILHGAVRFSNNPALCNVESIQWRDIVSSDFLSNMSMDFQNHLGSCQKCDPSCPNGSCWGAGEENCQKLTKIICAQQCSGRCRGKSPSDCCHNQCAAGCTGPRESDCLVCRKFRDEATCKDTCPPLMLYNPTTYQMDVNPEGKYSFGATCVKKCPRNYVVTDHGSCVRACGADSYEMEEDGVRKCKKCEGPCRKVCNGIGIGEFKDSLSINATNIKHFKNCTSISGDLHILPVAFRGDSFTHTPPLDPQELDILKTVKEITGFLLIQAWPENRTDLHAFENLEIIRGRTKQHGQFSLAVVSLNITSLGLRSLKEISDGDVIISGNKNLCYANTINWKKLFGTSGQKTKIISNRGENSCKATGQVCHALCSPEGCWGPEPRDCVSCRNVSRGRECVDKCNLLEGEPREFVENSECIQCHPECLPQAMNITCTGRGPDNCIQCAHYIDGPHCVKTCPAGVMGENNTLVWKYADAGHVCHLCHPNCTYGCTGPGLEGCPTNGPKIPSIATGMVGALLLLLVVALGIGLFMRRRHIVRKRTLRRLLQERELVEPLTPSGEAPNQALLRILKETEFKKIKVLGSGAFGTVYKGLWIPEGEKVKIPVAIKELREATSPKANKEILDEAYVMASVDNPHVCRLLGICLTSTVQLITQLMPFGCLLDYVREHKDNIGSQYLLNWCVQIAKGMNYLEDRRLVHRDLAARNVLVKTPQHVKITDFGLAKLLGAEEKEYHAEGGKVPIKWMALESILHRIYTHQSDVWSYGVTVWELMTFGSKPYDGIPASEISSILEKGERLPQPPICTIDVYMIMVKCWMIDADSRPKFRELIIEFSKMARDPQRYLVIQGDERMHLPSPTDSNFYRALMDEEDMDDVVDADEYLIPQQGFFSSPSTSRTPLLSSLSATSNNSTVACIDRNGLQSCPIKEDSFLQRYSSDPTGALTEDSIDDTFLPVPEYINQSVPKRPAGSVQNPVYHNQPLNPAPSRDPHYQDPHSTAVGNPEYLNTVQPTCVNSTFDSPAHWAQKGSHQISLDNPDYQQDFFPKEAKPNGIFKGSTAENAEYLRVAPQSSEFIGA
Sequence of EGFR L858R/C797S (P00533 25-1210 C797S/L858R): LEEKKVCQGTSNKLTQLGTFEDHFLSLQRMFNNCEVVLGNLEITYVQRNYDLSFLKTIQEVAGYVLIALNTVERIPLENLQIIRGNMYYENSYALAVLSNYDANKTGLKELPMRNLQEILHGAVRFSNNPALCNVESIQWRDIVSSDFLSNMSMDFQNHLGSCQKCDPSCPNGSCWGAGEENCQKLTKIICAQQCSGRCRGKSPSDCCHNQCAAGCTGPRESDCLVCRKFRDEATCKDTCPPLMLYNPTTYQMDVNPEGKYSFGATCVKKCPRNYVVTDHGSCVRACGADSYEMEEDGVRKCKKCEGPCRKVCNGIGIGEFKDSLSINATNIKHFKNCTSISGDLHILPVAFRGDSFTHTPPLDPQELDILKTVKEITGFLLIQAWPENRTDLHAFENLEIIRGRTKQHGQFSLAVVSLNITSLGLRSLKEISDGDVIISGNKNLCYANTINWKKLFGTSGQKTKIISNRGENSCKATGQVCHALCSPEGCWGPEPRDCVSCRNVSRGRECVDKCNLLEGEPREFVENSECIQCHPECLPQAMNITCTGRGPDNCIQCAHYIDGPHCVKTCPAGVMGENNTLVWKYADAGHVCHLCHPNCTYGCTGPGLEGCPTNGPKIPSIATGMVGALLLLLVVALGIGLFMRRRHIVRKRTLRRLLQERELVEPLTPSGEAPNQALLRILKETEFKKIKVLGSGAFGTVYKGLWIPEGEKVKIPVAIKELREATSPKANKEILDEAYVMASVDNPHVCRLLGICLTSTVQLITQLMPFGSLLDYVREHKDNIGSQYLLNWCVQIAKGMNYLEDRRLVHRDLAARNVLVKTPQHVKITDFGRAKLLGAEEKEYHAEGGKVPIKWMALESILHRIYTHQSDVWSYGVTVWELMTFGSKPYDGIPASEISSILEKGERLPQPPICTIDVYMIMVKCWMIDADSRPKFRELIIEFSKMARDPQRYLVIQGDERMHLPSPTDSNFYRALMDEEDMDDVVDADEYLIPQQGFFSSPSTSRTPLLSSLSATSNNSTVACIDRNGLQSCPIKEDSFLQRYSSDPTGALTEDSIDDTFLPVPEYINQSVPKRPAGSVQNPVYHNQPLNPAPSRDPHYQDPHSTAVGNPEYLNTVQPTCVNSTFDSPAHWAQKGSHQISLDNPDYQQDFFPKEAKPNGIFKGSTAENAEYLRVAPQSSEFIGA

As to `O=S(=O)(C1CC1)n1cc(-c2nccc(Nc3cc(NC4CCCC4O)c(-c4ccn(C(F)F)n4)cn3)n2)cn1` (stereo not shown) [Example 29, 2-((2-((2-(1-(Cyclopropylsulfonyl)-1H-pyrazol-4-yl)pyrimidin-4-yl)amino)-5-(1-(difluoromethyl)-1H-pyrazol-3-yl)pyridin-4-yl)amino)cyclopentan-1-ol], the IC50 against EGFR del19/T790M/C797S (setting [1]) turned out to be 2.4 nM; on EGFR del19/T790M/C797S (setting [2]), 1.1 nM; at EGFR L858R/T790M/C797S (setting [3]), 7.7 nM; on EGFR L858R/T790M/C797S (setting [4]), 1 nM; on EGFR del19/C797S (setting [5]), 77.1 nM; on EGFR del19/C797S (setting [6]) it was 89.9 nM. The IC50 was 590 nM against EGFR L858R/C797S (setting [7]), 26.2 nM at EGFR L858R/C797S (setting [8]), over 10000 nM at EGFR wildtype (WT) (setting [9]) and 218 nM at EGFR wildtype (WT) (setting [10]).
On to `CC1(O)CCC(Oc2cc(Nc3ccnc(-c4cnn(S(=O)(=O)C5CC5)c4)n3)ncc2-c2ccn(C(F)F)n2)CC1` (stereo not shown) [Example 68, 4-((2-((2-(1-(Cyclopropylsulfonyl)-1H-pyrazol-4-yl)pyrimidin-4-yl)amino)-5-(1-(difluoromethyl)-1H-pyrazol-3-yl)pyridin-4-yl)oxy)-1-methylcyclohexan-1-ol], for which the IC50 against EGFR del19/T790M/C797S (setting [1]) was 0.6 nM; on EGFR del19/T790M/C797S (setting [2]), 0.5 nM; against EGFR L858R/T790M/C797S (setting [3]) it was 1.7 nM; at EGFR L858R/T790M/C797S (setting [4]), 0.2 nM; at EGFR del19/C797S (setting [5]), 6.1 nM; at EGFR del19/C797S (setting [6]) it was 7.3 nM. Further, the IC50 at EGFR L858R/C797S (setting [7]) was 55.9 nM; on EGFR L858R/C797S (setting [8]), 6.3 nM; against EGFR wildtype (WT) (setting [9]), over 10000 nM; at EGFR wildtype (WT) (setting [10]), 95.8 nM.
Consider `C[C@]1(O)CC[C@@H](Nc2cc(Nc3ccnc(N4CCC[C@H](O)C4)n3)ncc2-c2ccn(C(F)F)n2)CC1` [Example 351, (S)-1-(4-((5-(1-(Difluoromethyl)-1H-pyrazol-3-yl)-4-(((1s,4R)-4-hydroxy-4-methylcyclohexyl)amino)pyridin-2-yl)amino)pyrimidin-2-yl)piperidin-3-ol], for which the IC50 on EGFR del19/T790M/C797S (setting [11]) was found to be 2.7 nM; on EGFR L858R/T790M/C797S (setting [12]), 2.8 nM; on EGFR del19/C797S (setting [13]), 198 nM; on EGFR L858R/C797S (setting [14]) it was 44.3 nM; on EGFR wildtype (WT) (setting [15]) it was 235 nM.
`COCn1ccc(-c2cnc(Nc3ccnc(-c4cnn(S(=O)(=O)C5CC5)c4)n3)cc2NC(C)C)n1` [Example 303, N^2-(2-(1-(Cyclopropylsulfonyl)-1H-pyrazol-4-yl)pyrimidin-4-yl)-N^4-isopropyl-5-(1-(methoxymethyl)-1H-pyrazol-3-yl)pyridine-2,4-diamine]: the IC50 on EGFR del19/T790M/C797S (setting [2]) was 0.6 nM; at EGFR L858R/T790M/C797S (setting [4]) it was 0.3 nM; at EGFR del19/C797S (setting [6]) it was 2.2 nM; at EGFR L858R/C797S (setting [8]), 0.2 nM; on EGFR wildtype (WT) (setting [10]), 1.7 nM.
With `CN1CCC(n2ccc(-c3cnc(Nc4ccnc(-c5cnn(S(=O)(=O)C6CC6)c5)n4)cc3N[C@H]3CC[C@@](C)(O)CC3)n2)CC1` [Example 287, (1s,4s)-4-((2-((2-(1-(Cyclopropylsulfonyl)-1H-pyrazol-4-yl)pyrimidin-4-yl)amino)-5-(1-(1-methylpiperidin-4-yl)-1H-pyrazol-3-yl)pyridin-4-yl)amino)-1-methylcyclohexan-1-ol], the IC50 is 0.2 nM at EGFR del19/T790M/C797S (setting [2]); 0.1 nM at EGFR L858R/T790M/C797S (setting [4]); 0.3 nM on EGFR del19/C797S (setting [6]); 0.1 nM on EGFR L858R/C797S (setting [8]); 0.3 nM on EGFR wildtype (WT) (setting [10]).
Turning to `Cc1nn(S(=O)(=O)N(C)C)cc1-c1nccc(Nc2cc(N[C@H]3CC[C@@](C)(O)CC3)c(-c3ccn(C(F)F)n3)cn2)n1` [Example 315, 4-(4-((5-(1-(Difluoromethyl)-1H-pyrazol-3-yl)-4-(((1s,4s)-4-hydroxy-4-methylcyclohexyl)amino)pyridin-2-yl)amino)pyrimidin-2-yl)-N,N,3-trimethyl-1H-pyrazole-1-sulfonamide], the IC50 at EGFR del19/T790M/C797S (setting [1]) turned out to be 1.9 nM; at EGFR del19/T790M/C797S (setting [2]), 0.6 nM; at EGFR L858R/T790M/C797S (setting [3]), 1.1 nM; on EGFR L858R/T790M/C797S (setting [4]) it was 0.5 nM; at EGFR del19/C797S (setting [5]), 11 nM; on EGFR del19/C797S (setting [6]), 6.3 nM. Also, the IC50 against EGFR L858R/C797S (setting [7]) was 37.4 nM; on EGFR L858R/C797S (setting [8]) it was 5.4 nM; at EGFR wildtype (WT) (setting [9]), over 10000 nM; on EGFR wildtype (WT) (setting [10]), 14.2 nM.
On to `Cn1nc(-c2cnc(Nc3ccnc(N4CCC(O)C(F)(F)C4)n3)cc2NC2CCC(C)(O)CC2)cc1C(F)(F)F` (stereo not shown) [Example 353, 3,3-Difluoro-1-(4-((4-(((1s,4s)-4-hydroxy-4-methylcyclohexyl)amino)-5-(1-methyl-5-(trifluoromethyl)-1H-pyrazol-3-yl)pyridin-2-yl)amino)pyrimidin-2-yl)piperidin-4-ol], for which the IC50 on EGFR del19/T790M/C797S (IC50 del19/T790M/C797S, 100 μM ATP) is 0.9 nM; at EGFR del19/T790M/C797S (setting [11]), 0.7 nM; at EGFR L858R/T790M/C797S (IC50 L858R/T790M/C797S, 100 μM ATP), 0.8 nM; on EGFR L858R/T790M/C797S (setting [12]), 0.3 nM; at EGFR del19/C797S (IC50 del19/C797S, 100 μM ATP), 252 nM; at EGFR del19/C797S (setting [13]), 133 nM. The IC50 on EGFR L858R/C797S (IC50 L858R/C797S, 100 μM ATP) is 275 nM; at EGFR L858R/C797S (setting [14]), 15.7 nM; on EGFR wildtype (WT) (IC50 WT, 100 μM ATP), over 10000 nM; at EGFR wildtype (WT) (setting [15]), 175 nM.
As to `CN[C@H]1CC[C@@H](Oc2cc(Nc3ccnc(-c4cnn(S(=O)(=O)C5CC5)c4)n3)ncc2-c2cnn(C(F)F)c2)CC1` [Example 69, 2-(1-(Cyclopropylsulfonyl)-1H-pyrazol-4-yl)-N-(5-(1-(difluoromethyl)-1H-pyrazol-4-yl)-4-(((1s,4s)-4-(methylamino)cyclohexyl)oxy)pyridin-2-yl)pyrimidin-4-amine], the IC50 was 0.5 nM at EGFR del19/T790M/C797S (setting [1]); 0.3 nM at EGFR del19/T790M/C797S (setting [2]); 1.9 nM on EGFR L858R/T790M/C797S (setting [3]); 0.2 nM at EGFR L858R/T790M/C797S (setting [4]); 18.7 nM at EGFR del19/C797S (setting [5]); 11.2 nM at EGFR del19/C797S (setting [6]). The IC50 is 257 nM against EGFR L858R/C797S (setting [7]), 14.7 nM on EGFR L858R/C797S (setting [8]), over 10000 nM on EGFR wildtype (WT) (setting [9]) and 114 nM at EGFR wildtype (WT) (setting [10]).
`CC(C)(O)[C@H]1CC[C@@H](Nc2cc(Nc3ccnc(-c4cnn(CC(F)F)c4)n3)ncc2-c2ccn(C(F)F)n2)CC1` [Example 148, 2-((1s,4s)-4-((2-((2-(1-(2,2-Difluoroethyl)-1H-pyrazol-4-yl)pyrimidin-4-yl)amino)-5-(1-(difluoromethyl)-1H-pyrazol-3-yl)pyridin-4-yl)amino)cyclohexyl)propan-2-ol]: the IC50 on EGFR del19/T790M/C797S (setting [2]) is 1.4 nM; on EGFR L858R/T790M/C797S (setting [4]), 1.7 nM; at EGFR del19/C797S (setting [6]) it was 75.5 nM; on EGFR L858R/C797S (setting [8]), 27 nM; at EGFR wildtype (WT) (setting [10]), 128 nM.
For the molecule `O=S(=O)(C1CC1)n1cc(-c2cc(Nc3ncc(-c4ccn(C(F)F)n4)c(N[C@H]4CC[C@@H](CO)CC4)n3)ccn2)cn1` [Example 364, ((1s,4s)-4-((2-((2-(1-(Cyclopropylsulfonyl)-1H-pyrazol-4-yl)pyridin-4-yl)amino)-5-(1-(difluoromethyl)-1H-pyrazol-3-yl)pyrimidin-4-yl)amino)cyclohexyl)methanol], the IC50 at EGFR del19/T790M/C797S (setting [11]) stood at 0.4 nM; on EGFR L858R/T790M/C797S (setting [12]), 0.8 nM; on EGFR del19/C797S (setting [13]), 7.9 nM; on EGFR L858R/C797S (setting [14]) it was 9 nM; at EGFR wildtype (WT) (setting [15]), 55.6 nM.
Consider `O=S(=O)(C1CC1)n1cc(-c2nccc(Nc3cc(N[C@H]4CC[C@@H](CO)CC4)c(-c4ccn(CC(F)F)n4)cn3)n2)cn1` [Example 244, ((1s,4s)-4-((2-((2-(1-(Cyclopropylsulfonyl)-1H-pyrazol-4-yl)pyrimidin-4-yl)amino)-5-(1-(2,2-difluoroethyl)-1H-pyrazol-3-yl)pyridin-4-yl)amino)cyclohexyl)methanol], for which the IC50 against EGFR del19/T790M/C797S (setting [1]) came out at 0.2 nM; at EGFR del19/T790M/C797S (setting [2]) it was 0.3 nM; at EGFR L858R/T790M/C797S (setting [3]), 0.4 nM; at EGFR L858R/T790M/C797S (setting [4]) it was 0.1 nM; at EGFR del19/C797S (setting [5]) it was 0.5 nM; on EGFR del19/C797S (setting [6]) it was 0.6 nM. For the same molecule, the IC50 against EGFR L858R/C797S (setting [7]) was 1.9 nM; on EGFR L858R/C797S (setting [8]) it was 0.5 nM; at EGFR wildtype (WT) (setting [9]), 975 nM; on EGFR wildtype (WT) (setting [10]) it was 2.3 nM.
